Results taken from patent publication US9399635B2, “Pyrazole derivative” (GREEN TECH CO., LTD., priority 2011, dated 2016).

Row | melting point | Compound
1 | 88 to 93 °C | COc1cc(/C=C/c2cc(/C=C/c3ccc4cc[nH]c4c3)[nH]n2)cc(OCc2ccccn2)c1 [Example 25, 3-[(1E)-2-(1H-indol-6-yl)ethenyl]-5-[(1E)-2-[3-methoxy-5-(2-pyridylmethoxy)phenyl]ethenyl]-1H-pyrazole]
2 | 236 to 243 °C | COc1cc(/C=C/c2cc(/C=C/c3ccc4cc[nH]c4c3)[nH]n2)ccc1OCc1ccccn1 [Example 17, 3-[(1E)-2-(1H-indol-6-yl)ethenyl]-5-[(1E)-2-[3-methoxy-4-(2-pyridylmethoxy)phenyl]ethenyl]-1H-pyrazole]
3 | 124 to 134 °C | COc1cc(OCc2ccncc2)ccc1/C=C/c1cc(/C=C/c2cc3ccccc3[nH]2)[nH]n1 [Example 53, 3-[(1E)-2-(1H-indol-2-yl)ethenyl]-5-[(1E)-2-[2-methoxy-4-(4-pyridylmethoxy)phenyl]ethenyl]-1H-pyrazole]
4 | 183 to 186 °C | C(=C\c1cc(/C=C/c2ccc3[nH]ccc3c2)[nH]n1)/c1cccc(OCc2ccccn2)c1 [Example 7, 3-[(1E)-2-(1H-indol-5-yl)ethenyl]-5-[(1E)-2-[3-(2-pyridylmethoxy)phenyl]ethenyl]-1H-pyrazole]
5 | 150 to 155 °C | COc1cc(OCCN2CCCCC2)ccc1/C=C/c1cc(/C=C/c2ccc3cc[nH]c3c2)[nH]n1 [Example 26, 3-[(1E)-2-(1H-indol-6-yl)ethenyl]-5-[(1E)-2-[2-methoxy-4-(2-piperidinoethoxy)phenyl]ethenyl]-1H-pyrazole]
6 | 109 to 114 °C | COc1cc(OCc2cccnc2)ccc1/C=C/c1cc(/C=C/c2cccc3[nH]ccc23)[nH]n1 [Example 48, 3-[(1E)-2-(1H-indol-4-yl)ethenyl]-5-[(1E)-2-[2-methoxy-4-(3-pyridylmethoxy)phenyl]ethenyl]-1H-pyrazole]
7 | 102 to 110 °C | COc1cc(OCCn2cccc2)ccc1/C=C/c1cc(/C=C/c2ccc3cc[nH]c3c2)[nH]n1 [Example 81, 3-[(1E)-2-(1H-indol-6-yl)ethenyl]-5-[(1E)-2-[2-methoxy-4-[2-(pyrrol-1-yl)ethoxy]phenyl]ethenyl]-1H-pyrazole]
8 | 104 to 108 °C | CCN(CC)c1ccc(/C=C/c2cc(/C=C/c3ccc4cc[nH]c4c3)[nH]n2)c(OC)c1 [Example 104, 3-[(1E)-2-(4-diethylamino-2-methoxyphenyl)ethenyl]-5-[(1E)-2-(1H-indol-6-yl)ethenyl]-1H-pyrazole]
9 | 199.4 to 200.9 °C | COc1cc(OCc2ccccn2)ccc1/C=C/c1cc(/C=C/c2cc3ccccc3o2)[nH]n1 [Example 33, 3-[(1E)-2-(benzofuran-2-yl)ethenyl]-5-[(1E)-2-[2-methoxy-4-(2-pyridylmethoxy)phenyl]ethenyl]-1H-pyrazole]
10 | 90 to 95 °C | COc1cc(OCc2cccnc2)ccc1/C=C/c1cc(/C=C/c2ccc3cc[nH]c3c2)[nH]n1 [Example 46, 3-[(1E)-2-(1H-indol-6-yl)ethenyl]-5-[(1E)-2-[2-methoxy-4-(3-pyridylmethoxy)phenyl]ethenyl]-1H-pyrazole]
11 | 219 to 223 °C | COc1cc(OCc2ccccn2)ccc1/C=C/c1cc(/C=C/c2c[nH]c3ncccc23)[nH]n1 [Example 75, 3-[(1E)-2-(7-aza-1H-indol-3-yl)ethenyl]-5-[(1E)-2-[2-methoxy-4-(2-pyridylmethoxy)phenyl]ethenyl]-1H-pyrazole]
12 | 193 to 195 °C | C(=C\c1cc(/C=C/c2ccc3cc[nH]c3c2)[nH]n1)/c1cccc(OCc2ccccn2)c1 [Example 19, 3-[(1E)-2-(1H-indol-6-yl)ethenyl]-5-[(1E)-2-[3-(2-pyridylmethoxy)phenyl]ethenyl]-1H-pyrazole]
13 | 104 to 108 °C | COc1cc(OCC2CCCCC2)ccc1/C=C/c1cc(/C=C/c2ccc3cc[nH]c3c2)[nH]n1 [Example 80, 3-[(1E)-2-[4-(cyclohexylmethoxy)-2-methoxyphenyl]ethenyl]-5-[(1E)-2-(1H-indol-6-yl)ethenyl]-1H-pyrazole]
14 | 103 to 109 °C | COc1ccc(Br)c(/C=C/c2cc(/C=C/c3ccc4cc[nH]c4c3)[nH]n2)c1 [Example 67, 3-[(1E)-2-(2-bromo-5-methoxyphenyl)ethenyl]-5-[(1E)-2-(1H-indol-6-yl)ethenyl]-1H-pyrazole]
15 | 110 to 117 °C | COc1ccc(/C=C/c2cc(/C=C/c3ccc4cc[nH]c4c3)[nH]n2)cc1OCc1ccccn1 [Example 18, 3-[(1E)-2-(1H-indol-6-yl)ethenyl]-5-[(1E)-2-[4-methoxy-3-(2-pyridylmethoxy)phenyl]ethenyl]-1H-pyrazole]
16 | 107 to 113 °C | COc1cc(OC(C)C)ccc1/C=C/c1cc(/C=C/c2ccc3cc[nH]c3c2)[nH]n1 [Example 65, 3-[(1E)-2-(1H-indol-6-yl)ethenyl]-5-[(1E)-2-(4-isopropoxy-2-methoxyphenyl)ethenyl]-1H-pyrazole]
17 | 109 to 118 °C | COc1ccc(/C=C/c2cc(/C=C/c3ccc4[nH]ccc4c3)[nH]n2)cc1OCc1ccccn1 [Example 6, 3-[(1E)-2-(1H-indol-5-yl)ethenyl]-5-[(1E)-2-[4-methoxy-3-(2-pyridylmethoxy)phenyl]ethenyl]-1H-pyrazole]
18 | 126 to 138 °C | COc1cc(OCc2cccnc2)ccc1/C=C/c1cc(/C=C/c2cc3ccccc3[nH]2)[nH]n1 [Example 52, 3-[(1E)-2-(1H-indol-2-yl)ethenyl]-5-[(1E)-2-[2-methoxy-4-(3-pyridylmethoxy)phenyl]ethenyl]-1H-pyrazole]
19 | 134 to 142 °C | COc1cc(OCCN2CCN(C)CC2)ccc1/C=C/c1cc(/C=C/c2ccc3cc[nH]c3c2)[nH]n1 [Example 28, 3-[(1E)-2-(1H-indol-6-yl)ethenyl]-5-[(1E)-2-[2-methoxy-4-[2-(4-methylpiperazino)ethoxy]phenyl]ethenyl]-1H-pyrazole]
20 | 175 to 182 °C | C(=C\c1cc(/C=C/c2ccc3cc[nH]c3c2)[nH]n1)/c1ccc(Oc2ccccc2)cc1 [Example 56, 3-[(1E)-2-(1H-indol-6-yl)ethenyl]-5-[(1E)-2-(4-phenoxyphenyl)ethenyl]-1H-pyrazole]
21 | 120 to 130 °C | COc1cc(/C=C/c2cc(/C=C/c3c[nH]c4ccccc34)[nH]n2)ccc1OCc1ccccn1 [Example 11, 3-[(1E)-2-(1H-indol-3-yl)ethenyl]-5-[(1E)-2-[3-methoxy-4-(2-pyridylmethoxy)phenyl]ethenyl]-1H-pyrazole]
22 | 273 to 276 °C | C(=C\c1cc(/C=C/c2ccc3cc[nH]c3c2)[nH]n1)/c1ccc(-c2ccccc2)cc1 [Example 61, 3-[(1E)-2-(1H-indol-6-yl)ethenyl]-5-[(1E)-2-(4-phenylphenyl)ethenyl]-1H-pyrazole]
23 | 99 to 110 °C | COc1cc(OCc2ccccn2)ccc1/C=C/c1cc(/C=C/c2cccc3cc[nH]c23)[nH]n1 [Example 41, 3-[(1E)-2-(1H-indol-7-yl)ethenyl]-5-[(1E)-2-[2-methoxy-4-(2-pyridylmethoxy)phenyl]ethenyl]-1H-pyrazole]
24 | 89 to 93 °C | COc1cc(OCc2ccccn2)ccc1/C=C/c1cc(/C=C/c2ccc3ccn(Cc4ccccc4)c3c2)[nH]n1 [Example 70, 3-[(1E)-2-(1-benzyl-1H-indol-6-yl)ethenyl]-5-[(1E)-2-[2-methoxy-4-(2-pyridylmethoxy)phenyl]ethenyl]-1H-pyrazole]
